Data taken from paper PMC3214660 (Cancer prevention research (Philadelphia, Pa.), 2011).

How the values were obtained:
[1] = test system: COX-2 in RAW264.7 cells; format: cell-based, murine
[2] = target: T1, mCOX-2 (Mus musculus, UniProt Q05769); assay: Enzyme-inhibitor binding kinetics, time-dependent inhibition of purified mCOX-2; format: biochemical; settings: mCOX-2, time-dependent inhibition
T1 sequence (Q05769 18-604): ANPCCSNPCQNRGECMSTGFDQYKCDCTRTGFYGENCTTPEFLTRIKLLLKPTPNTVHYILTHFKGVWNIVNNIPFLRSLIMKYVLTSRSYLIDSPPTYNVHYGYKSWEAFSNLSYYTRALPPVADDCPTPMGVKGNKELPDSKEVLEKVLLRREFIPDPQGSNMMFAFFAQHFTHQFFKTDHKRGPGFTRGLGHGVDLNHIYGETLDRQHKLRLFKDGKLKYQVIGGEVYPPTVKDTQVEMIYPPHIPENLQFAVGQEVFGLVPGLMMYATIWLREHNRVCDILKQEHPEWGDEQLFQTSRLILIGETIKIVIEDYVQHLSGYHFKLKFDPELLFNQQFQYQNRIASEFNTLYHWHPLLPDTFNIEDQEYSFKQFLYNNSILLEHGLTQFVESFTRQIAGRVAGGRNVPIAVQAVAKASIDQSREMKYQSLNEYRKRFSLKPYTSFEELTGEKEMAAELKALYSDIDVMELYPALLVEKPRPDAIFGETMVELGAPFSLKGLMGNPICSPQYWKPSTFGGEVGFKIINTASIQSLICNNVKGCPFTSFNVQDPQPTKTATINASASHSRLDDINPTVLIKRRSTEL

[3] = Tissue analysis for defluorination in rat footpads; format: in vivo, Sprague-Dawley rats; settings: compound 7 1 mg/kg i.p., 2 hours post dosing

| Compound | IC50 ([1]; Mus musculus, RAW264.7, 0.5 h, read-out: RAW246.7 Cells IC50 COX-2) | dissociation rate k−2 [2] | inactivation rate k2 [2] | KI, equilibrium constant for initial association (k−1/k1) ([2]; 37 °C) | calculated extent of defluorination ([3]; rat footpad, n = 3) | amount in inflamed footpad ([3]; rat, LC-MS) | Inhibition of COX-2 in intact RAW264.7 cells, in words ([1]; activated RAW264.7 cells, prostaglandin production) |
| --- | --- | --- | --- | --- | --- | --- | --- |
| COc1ccc2c(c1)c(CC(=O)O)c(C)n2C(=O)c1ccc(Cl)cc1 [Indomethacin, reference compound] | 10 nM | – | – | – | – | – | – |
| Cc1ccc(-c2cc(CF)nn2-c2ccc(S(N)(=O)=O)cc2)cc1 [Compound 7] | – | 0.0003 s⁻¹ | 0.035 s⁻¹ | 7300 ± 1600 nM | 8.8 ± 5.0% | 486.3 pmol/g tissue | low nanomolar range |
